BindingDB's records for doi:10.1016/j.bmcl.2021.128263 (A*Star, 2021)

Biological target: Replicase polyprotein 1ab (Severe acute respiratory syndrome coronavirus, UniProt P0C6X7)
Experiment: Literature assay

Row | SMILES | Ki | IC50
1 | CC(OC(C)(C)C)[C@H](NC(=O)OCc1ccccc1)C(=O)N[C@@H](CC1CCCCC1)C(=O)N[C@H](C=O)CC1CCNC1=O (some centres undefined) [TG-0205221] | 0.053 µM | –
2 | CC(C)C[C@H](NC(=O)OCc1ccccc1)C(=O)N[C@@H](C[C@@H]1CCNC1=O)C(=O)c1nc2ccccc2s1 [peptidomimetic coronavirus 3CLpro inhibitors 25c] | – | 210 µM
3 | CC(C)C[C@H](NC(=O)[C@@H](NC(=O)OCc1ccccc1)C(C)C)C(=O)N[C@@H](C[C@@H]1CCNC1=O)C(=O)c1nc2ccccc2s1 [peptidomimetic coronavirus 3CLpro inhibitors 2i] | – | 1.7 µM
4 | CC(C)C[C@H](NC(=O)[C@@H](NC(=O)OCc1ccccc1)C(C)C)C(=O)N[C@@H](C[C@@H]1CCNC1=O)C(=O)C(=O)N(C)C [peptidomimetic coronavirus 3CLpro inhibitors 17] | – | 0.007 µM
